Assays:
[1] = Phase 1 plasma pharmacokinetics, multiple-ascending dose (MAD) cohorts; type: in vivo, human; conditions: for AUC24 / Cmax / Tmax: Day 1; for AUC24 / Cmax / AUCtau / Cmax, ss: geometric mean; for AUC24 / Cmax / Tmax / AUCtau / Cmax, ss / CLss/F / t1/2 / Tmax, ss: n = 6; for Tmax / Tmax, ss: median; for CLss/F / t1/2: mean ± SD
Procedure: Multiple-ascending dose (MAD) cohorts. The MAD cohorts also used a randomized, double-blind, placebo-controlled, sequential design.
Pharmacokinetic analyses. For all study groups, blood samples for PK assessment were obtained pre-dose, up to 12 times daily on day 1, and then at regular intervals throughout the study. Blood samples were collected according to the following schedule: SAD Cohorts: Day 1: pre-dose and 0.25, 0.5, 1, 1.5, 2, 2.5, 3, 4, 6, 8, 12, 16, 24, 36, 48, 72, 96, and 216 h post dose. MAD Cohorts (14-day Dosing): Day 1: pre-dose and 0.25, 0.5, 1, 1.5, 2, 2.5, 3, 4, 6, 8, and 12 h post dose; Days 2, 4, 5, 6, and 9: pre-dose (corresponding to trough samples following dosing on days 1, 3, 4, 5, and 8) and 1.5 h post dose; Days 3, 7, 8, 10, 11, 12, and 13: pre-dose (corresponding to trough samples following dosing on days 2, 6, 7, 9, 10, 11, and 12); Day 14: pre-dose and 0.25, 0.5, 1.5, 2, 2.5, 3, 4, 6, 8, 12, 16, 24, 36, 48, 72, and 168 h post dose. MAD Cohort (17-Day Dosing): Day 1: pre-dose and 0.25, 0.5, 1, 1.5, 2, 2.5, 3, 4, 6, 8, and 12 h post dose; Days 2, 4, 5, 6, and 9: pre-dose (corresponding to trough samples following dosing on days 1, 3, 4, 5, and 8) and 1.5 h post dose; Days 3, 7, 8, 10, 11, 12, 13, 14, 15, and 16: pre-dose (corresponding to trough samples following dosing on days 2, 6, 7, 9, 10, 11, and 12); Day 17: pre-dose and 0.25, 0.5, 1.5, 2, 2.5, 3, 5, 7, 9, 12, 24, 36, 48, 72, and 168 h post dose. CYPD6-PM Cohort: Day 1: pre-dose and 0.25, 0.5, 1, 1.5, 2, 2.5, 3, 4, 6, 8, 12, 16, 24, 36, 48, 72, 96, 216, 312, and 552 h post dose. Food-Effect Cohort: Day 1: pre-dose and 0.25, 0.5, 1, 1.5, 2, 2.5, 3, 4, 6, 8, 12, 16, 24, 36, 48, 72, 96, 144, and 216 h post dose. Standard non-compartmental methods were used to calculate PK parameters using Phoenix® WinNonlin® Version 7.0; actual sample collection times were utilized.
For the MAD cohort, the parameters were AUC24 and Cmax on day 1, plus AUC to the end of the dosing period (AUCtau) and Cmax on day 14 or 17. The statistical linear relationship between the In-transformed PK parameters and the In-transformed dose was verified by including the quadratic (ln Dose)^2 and cubic (ln Dose)^3 effects. […] The dose-proportionality analysis was performed using SAS® PROC MIXED.
An analysis of variance (ANOVA) model was conducted separately for each dose level; day was included as the fixed effect. Helmert contrasts were developed such that each time-point was compared with the mean of the subsequent time-points.

[2] = system: patients with symptomatic non-obstructive HCM (nHCM) or HCM with MVO; experiment: Phase 2 trial (Example 2): echocardiography (LVEF, diastolic function); type: in vivo, human
Procedure: Echocardiograms obtained on day 1 of treatment, at weeks 2, 4, 6, and 10 of treatment, and two weeks after the last dose were analyzed for several key structural and physiologic metrics; measurements of N-terminal prohormone of brain natriuretic peptide (NT-proBNP), and cardiac troponin I were also monitored. Ambulatory cardiac monitoring was conducted one week before day 1 of treatment and at week 9.
The secondary PD endpoints of the study were: Slope of the relationship of the plasma concentration of CK-3773274 to the change from baseline in the resting LVEF.
Echocardiography parameters were evaluated by the core laboratory at baseline and during treatment at the Weeks 2, 4, 6, and 10 and after a 2-week washout at Week 12 (follow-up visit).
The exploratory PD endpoints included but were not limited to: (i) The relationship of plasma concentration ranges of CK-3773274 to LVEF, LVFS, global longitudinal strain (GLS); (ii) Observed values and change from baseline in the echocardiography parameters described in Table 13 and evaluated by the core laboratory during treatment at Weeks 2, 4, 6, 10, and 12; (iii) Change in NT-proBNP from baseline to Week 10; (iv) Change in hs-cTnI from baseline to Week 10; (v) Proportion of patients with LVEF ≥50% and ≥50% reduction from baseline NT-proBNP.

CCc1nc(-c2ccc3c(c2)CC[C@H]3NC(=O)c2cnn(C)c2)no1 [aficamten, (R)—N-(5-(5-ethyl-1,2,4-oxadiazol-3-yl)-2,3-dihydro-1H-inden-1-yl)-1-methyl-1H-pyrazole-4-carboxamide]
AUC24 ([1]; MAD 5 mg qd × 14 Days): 278 ng·h/mL
Cmax ([1]; MAD 5 mg qd × 14 Days): 28.0 ng/mL
Tmax ([1]; MAD 5 mg qd × 14 Days): 1.3 h
AUCtau ([1]; MAD 5 mg qd, Day 14): 1320 ng·h/mL
Cmax, ss ([1]; MAD 5 mg qd, Day 14): 69.0 ng/mL
CLss/F ([1]; MAD 5 mg qd, Day 14): 3.9 ± 0.9 L/h
t1/2 ([1]; MAD 5 mg qd, Day 14): 86.4 ± 11.9 h
Tmax, ss ([1]; MAD 5 mg qd, Day 14): 2.8 h
Tmax ([1]; MAD 7.5 mg qd × 17 Days): 0.8 h
AUCtau ([1]; MAD 7.5 mg qd, Day 17): 2518 ng·h/mL
Cmax, ss ([1]; MAD 7.5 mg qd, Day 17): 147.6 ng/mL
CLss/F ([1]; MAD 7.5 mg qd, Day 17): 3.1 ± 0.7 L/h
t1/2 ([1]; MAD 7.5 mg qd, Day 17): 76.9 ± 14.5 h
AUC24 ([1]; MAD 10 mg qd × 14 Days): 547 ng·h/mL
Cmax ([1]; MAD 10 mg qd × 14 Days): 54.4 ng/mL
Tmax ([1]; MAD 10 mg qd × 14 Days): 1.0 h
AUCtau ([1]; MAD 10 mg qd, Day 14): 2632 ng·h/mL
Cmax, ss ([1]; MAD 10 mg qd, Day 14): 141.2 ng/mL
CLss/F ([1]; MAD 10 mg qd, Day 14): 3.9 ± 0.8 L/h
t1/2 ([1]; MAD 10 mg qd, Day 14): 79.8 ± 14.1 h
Tmax, ss ([1]; MAD 10 mg qd, Day 14): 2.5 h
steady state achieved by end of day ([1]; MAD 5-mg and 7.5-mg doses): 12 days
steady state achieved by end of day ([1]; MAD 10-mg dose): 10 days
time to steady state ([1]; once-daily dosing): ≤ 2 weeks
Doppler measures of diastolic function (lateral e′; lateral E/e′; septal E/e′) ([2]; baseline to week 10, second interim): generally improved
change in LVEF from baseline to Week 10 ([2]; second interim, N = 41): −5.5%
